Assay results: PMC8126241, “Active Components from Cassia abbreviata Prevent HIV-1 Entry by Distinct Mechanisms of Action” (International Journal of Molecular Sciences, 2021)
Read-outs that look alike come from different tables or passages of the source.

Columns and labels:
[1] = tested on: pseudotype virus pNL4.3ΔEnvLuc-HXB2; settings: multi-dosing time assay
CD4 = target: T1, CD4 (Homo sapiens, UniProt P01730); assay: Binding competition with anti-CD4 antibodies; settings: antibodies OKT4 and RPA-T4, U373-CD4-CXCR4/CCR5 cells
T1 construct: host or cells: U373-CD4-CXCR4 and U373-CD4-CCR5 cells
Protocol: Binding competition between increasing concentrations of compounds and FITC-conjugated mouse anti-human CD4 clone RPA-4 (Biolegend, Amsterdam, Netherlands), PE-conjugated mouse anti-Human CXCR4 clone 12G5, and PE-conjugated mouse anti-human CCR5 clone 2D7 (BD Pharma, Aalst, Belgium) to U373-CD4-CXCR4 and U373-CD4-CCR5 cells was first tested by flow cytometry (FACSCanto). […] After 1 h of incubation at 4 °C, cells were washed with FACS buffer (1% bovine serum albumin, 0.1% N3Na in PBS, Sigma), and Mean Fluorescence Intensity (MFI) was measured. […] Internalization was stopped after 30 min by addition of NaN3 (0.1%) on ice. Cells were stained with anti-human CXCR4 clone 4G10 (BD, Belgium) or anti-human CCR5 (CD195) clone T21/8, (eBioscience, Asse, Belgium), Near-IR fluorescent reactive dye during 1 h at 4 °C, washed with FACS buffer, and a secondary PE-conjugated goat anti-mouse antibody (Jackson ImmunoResearch, West Grove, PA, USA).

PBMCs = type: cell-based, human
Protocol: To assess drug cytotoxicity, PBMCs were incubated with or without drugs in a 96-well round bottom plate (Thermo Fisher, Asse, Belgium) at 2 × 10^5/200 μL/well. After 2 days, cells were washed with PBS and stained with 0.1 μL near-IR fluorescent reactive dye (Life technologies, Ghent, Belgium) in 100 μL PBS for 20 min at room temperature in dark. Stained cells were measured by flow cytometry (FACSCanto, BD biosciences, Belgium).

[2] = tested on: non-B HIV-1 primary clinical isolate #2; assay: microbe, parasite or virus in culture; settings: Human immunodeficiency virus 1, PBMC, 168 h, read-out: IC50 non-B HIV-1 primary clinical isolate (second named)
[3] = tested on: Influenza A/H1N1 A/Ned/378/05; assay: Broad spectrum antiviral activity, MDCK cells; type: cell-based; settings: Influenza A virus
Coxsackie virus B4 [4] = assay: Broad spectrum antiviral activity, vero cells; type: cell-based; settings: Enterovirus B
Feline herpes virus = assay: Broad spectrum antiviral activity, CRFK cells; type: cell-based
CXCR4 = target: T2, CXCR4 (Homo sapiens, UniProt P61073); assay: Binding competition with anti-CXCR4 antibody 12G5; settings: anti-CXCR4 antibody 12G5, U373-CD4-CXCR4 cells
T2 construct: host or cells: U373-CD4-CXCR4 cells

[5] = tested on: Herpes simplex virus-2 (G); assay: Broad spectrum antiviral activity, HEL cells; type: cell-based; settings: Human alphaherpesvirus 2, HEL
[6] = tested on: Influenza A/H3N2 A/HK/7/87; assay: Broad spectrum antiviral activity, MDCK cells; type: cell-based; settings: Influenza A virus
Punta toro virus = assay: Broad spectrum antiviral activity, vero cells; type: cell-based
HIV-1 = settings: read-out: IC50 HIV-1 replication; ref Clouser et al. [24]; cited from earlier work
HIV-1 ADA-M = assay: microbe, parasite or virus in culture; settings: Human immunodeficiency virus 1, PBMC, 168 h, read-out: IC50 HIV-1 ADA-M
HeLa cells = tested on: HeLa cells
Protocol: (§1) Dual chamber transmission assay was performed as previously described. HeLa cells were seeded into an upper chamber of a transwell plate (Sigma-Aldrich, Liège, Belgium), while TZM-bl cells were seeded in the lower chamber. Trans Epithelial Electric Resistance (TEER) was measured using Millicell-ERS Volt-Ohm Meter. HIV-1 ADA-M (200 pg) and drugs were added to the upper chamber after 4 days when TEER reached 150 Ohm/cm^2. 24 h after infection luciferase value of TZM-bl cells lysate was measured using the Luciferase System Kit and the POLARstar Omega Plate Reader. Data were analyzed using GraphPrism. The HIV-1 DC-SIGN transmission assay was performed as previously described.

[7] = tested on: DC-SIGN-captured virus transmission to CD4+ T cells; assay: HIV-1 DC-SIGN transmission assay; type: cell-based; settings: in vitro, data not shown
Protocol: as §1

Reovirus-1 = assay: Broad spectrum antiviral activity, vero cells; type: cell-based
Coxsackie virus B4 [8] = assay: Broad spectrum antiviral activity, HeLa cells; type: cell-based; settings: Enterovirus B
[9] = tested on: non-B HIV-1 primary clinical isolate #1; assay: microbe, parasite or virus in culture; settings: Human immunodeficiency virus 1, PBMC, 168 h, read-out: IC50 non-B HIV-1 primary clinical isolate (first named)
HIV-1 IIIB = assay: microbe, parasite or virus in culture; settings: Human immunodeficiency virus 1, IIIB, PBMC, 168 h, read-out: IC50 HIV-1 IIIB
[10] = tested on: Respiratory syncytial virus; assay: Broad spectrum antiviral activity, HeLa cells; type: cell-based; settings: human respiratory syncytial virus
[11] = tested on: Feline corona virus (FIPV); assay: Broad spectrum antiviral activity, CRFK cells; type: cell-based; settings: Alphacoronavirus 1
[12] = tested on: Vesicular stomatitis virus; assay: microbe, parasite or virus in culture; type: cell-based
[13] = tested on: pseudotype virus pNL4.3ΔEnvLuc-HXB2; assay: microbe, parasite or virus in culture; settings: Human immunodeficiency virus 1, HXB2, read-out: IC50 HIV-1 entry
Para-influenza-3 virus = assay: organism not typed; type: cell-based; settings: vero cells
sindbisvirus = assay: Broad spectrum antiviral activity, vero cells; type: cell-based

T2 sequence (P61073 whole entry): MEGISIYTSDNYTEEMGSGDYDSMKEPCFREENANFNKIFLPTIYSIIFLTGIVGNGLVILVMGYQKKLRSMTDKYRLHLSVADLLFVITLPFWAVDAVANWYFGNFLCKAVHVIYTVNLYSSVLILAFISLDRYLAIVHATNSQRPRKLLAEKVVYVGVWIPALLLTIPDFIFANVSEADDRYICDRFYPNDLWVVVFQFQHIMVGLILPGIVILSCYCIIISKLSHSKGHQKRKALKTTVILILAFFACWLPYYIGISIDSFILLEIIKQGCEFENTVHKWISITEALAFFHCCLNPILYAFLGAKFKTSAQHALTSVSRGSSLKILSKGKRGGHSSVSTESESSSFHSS

## Oc1cc(O)cc(/C=C/c2ccc(O)c(O)c2)c1 [piceatannol, trans-3,3′,4,5′-tetrahydroxystilbene]
[1]; 2 h after spinoculation (post-infection)
  Inhibitory effect when added after infection: did not find any effect
[1]; 2 h pre-incubation on cells, HXB2 and BAL pseudotypes
  Inhibitory effect when pre-incubated with cells: inhibited HIV-1 infection at high concentration
[1]; 2 h pre-incubation on virus, HXB2 and BAL pseudotypes
  Inhibitory effect when pre-incubated with the virus: not pre-incubated with the virus
CD4
  Inhibition of anti-CD4 antibodies binding to CD4: neither CE nor piceatannol did
PBMCs
  Cytotoxicity in PBMCs: not cytotoxic
[2]
  IC50: 8.04 ± 3.07 µM
[3]
  IC50: > 100 µM
Coxsackie virus B4 [4]
  IC50: > 100 µM
Feline herpes virus
  IC50: > 100 µM
CXCR4
  Inhibition of CXCR4 binding: neither CE nor piceatannol did
[5]
  IC50: ~45 µM
[6]
  IC50: > 100 µM
Punta toro virus
  IC50: > 100 µM
HIV-1
  IC50: 21.4 µM
HIV-1 ADA-M
  IC50: 19.9 ± 0.22 µM
HeLa cells
  Effect on confluence layer's TEER and epithelial cells viability: without affecting
[7]
  Prevention of transmission of DC-SIGN-captured virus to CD4+ T cells: did not prevent
Reovirus-1
  IC50: > 100 µM
Coxsackie virus B4 [8]
  IC50: > 100 µM
[9]
  IC50: 37.7 ± 12.5 µM
HIV-1 IIIB
  IC50: 24.2 ± 7.13 µM
[10]
  IC50: > 100 µM
[11]
  IC50: > 100 µM
[12]
  IC50: 79.2 ± 17 µM
[12]; Vesicular stomatitis virus, U-87 MG
  IC50: 79.2 ± 17.2 µM
[13]
  IC50: 10.3 ± 5.74 µM
Para-influenza-3 virus
  IC50: > 100 µM
sindbisvirus
  IC50: > 100 µM
